Consider 14 compounds from patent US12637471B2, “Heterocyclic compounds, compositions, methods of preparation and uses thereof” (Organon R&D Finland Ltd, priority 2021, dated 2026).

Common to all, as to type: biochemical
For test [1], the target named is T1, Recombinant human AKR1C3 (17β-HSD5) protein (Homo sapiens, UniProt P42330).
T1 construct: made in house; host or cells: E. coli
T1 sequence (P42330 1-323): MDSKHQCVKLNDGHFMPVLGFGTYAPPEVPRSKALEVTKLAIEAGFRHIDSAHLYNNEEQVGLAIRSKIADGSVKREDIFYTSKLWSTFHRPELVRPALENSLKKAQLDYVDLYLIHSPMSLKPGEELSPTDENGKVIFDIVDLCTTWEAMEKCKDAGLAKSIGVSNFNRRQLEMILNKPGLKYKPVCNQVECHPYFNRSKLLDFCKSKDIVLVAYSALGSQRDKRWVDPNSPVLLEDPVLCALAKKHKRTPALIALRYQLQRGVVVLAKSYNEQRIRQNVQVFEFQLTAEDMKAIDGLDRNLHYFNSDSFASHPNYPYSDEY
Kind of test: Inhibition of AKR1C3 (17β-hydroxysteroid dehydrogenase type 5) enzyme, fluorescence assay. The following applies: inhibitor at 500 nM. The procedure: Inhibition of AKR1C3 (17β-Hydroxysteroid Dehydrogenase Type 5) Enzyme
Recombinant human AKR1C3 (17β-HSD5) protein (GenBank Accession No. NM_003739.6) produced in E. coli was used for screening. Recombinant protein (27 nM/1 μg/ml) was incubated in 20 mM KH2PO4, 1 mM EDTA, complete protease inhibitor cocktail, pH 7.4 with 1 μM 9-acetyl-2,3,6,7-tetrahydro-1H,5H,11H-pyrano[2,3-f]pyrido[3,2,1-ij]quinolin-11-one and 1 mM NADPH for 60 to 120 min at RT, in the presence of the potential inhibitor at 500 nM concentration. Inhibitor stock solutions were prepared in DMSO. Final concentration of DMSO was adjusted to 1% in all samples. The samples were analysed by fluorescent measurement with Tecan Spark microplate reader at wavelengths 420 nm for excitation and 510 nm for emission. Samples were evaluated against standards of 9-(1-hydroxyethyl)-2,3,6,7-tetrahydro-1H,5H,11H-pyrano[2,3-f]pyrido[3,2,1-ij]quinolin-11-one at concentrations 1 μM-10 nM. Background fluorescence was reduced from all the samples and standards. The concentrations of formed product were calculated from the standard curve with Tecan Spark Magellan software. The formed product concentrations were used to calculate conversion percentages. The inhibition percentages for the samples were calculated from the conversion percentages.
Inhibition percentages of samples were calculated using following formula: […]

The target in test [2] is T2, Recombinant human aldo-keto reductase family 1 member C2 (AKR1C2) protein (Homo sapiens, UniProt P52895).
T2 construct: made in house; host or cells: Sf-9 insect cells (baculovirus)
T2 sequence (P52895 1-323): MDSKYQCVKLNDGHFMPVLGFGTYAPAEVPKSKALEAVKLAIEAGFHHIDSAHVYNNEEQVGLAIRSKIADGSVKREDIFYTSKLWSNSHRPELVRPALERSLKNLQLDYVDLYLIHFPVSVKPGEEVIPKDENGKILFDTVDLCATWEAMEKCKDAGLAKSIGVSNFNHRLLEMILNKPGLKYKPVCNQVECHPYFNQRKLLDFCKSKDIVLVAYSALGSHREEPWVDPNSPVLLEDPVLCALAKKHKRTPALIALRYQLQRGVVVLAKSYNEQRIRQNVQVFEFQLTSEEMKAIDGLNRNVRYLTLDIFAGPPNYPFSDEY
Kind of test: Inhibition of the aldo-keto reductase family 1 member C2, 3H-dihydrotestosterone conversion. The following applies: inhibitor at 10 μM. The procedure:
Inhibition of the Aldo-Keto Reductase Family 1 Member C2
Recombinant human aldo-keto reductase family 1 member C2 (AKR1C2) protein (GenBank Accession No. NM_001354.6) produced in Sf-9 insect cells with baculovirus was used for screening. Recombinant protein (13.6 nM/0.5 μg/ml) was incubated in 20 mM KH2PO4 pH 7.4, 1 mM EDTA, complete protease inhibitor tablet, 1 mM NADPH with 6.25 nM ^3H-labelled dihydrotestosterone for 45 min at +37° C., in the presence of the potential inhibitor at 10 μM concentration. Inhibitor stock solutions were prepared in DMSO. Final concentration of DMSO was adjusted to 1% in all samples. The enzyme reaction was stopped by addition of 10% trichloroacetic acid (final concentration 1%). Samples were filtrated through […] filtration plate (Merck). Analyses of samples was done with Waters Acquity UPLC H-class equipped with XBridge C18 column and XBridge VanGuard C18 guard column. Acetonitrile: 0.1% formic acid in water (42/58 v/v) with flow of 1.2 ml/min was used for mobile phase. The eluent was mixed with scintillant and the radioactivity was monitored in the eluate by a Scintillation Analyser. The conversion percentage of triated substrate (dihydrotestosterone) to tritiated product (5α-androstane-3α,17β-diol) for each sample was determined by the relative percentages of substrate and product in the chromatogram. The inhibition percentages of samples were calculated using following formula: […]

Test [3] has as its target T3, 17β-Hydroxysteroid Dehydrogenase Type 2 Enzyme (17β-HSD2) (Homo sapiens, UniProt P37059).
T3 construct: made in house; host or cells: Sf-9 insect cells (baculovirus)
T3 sequence (P37059 1-387): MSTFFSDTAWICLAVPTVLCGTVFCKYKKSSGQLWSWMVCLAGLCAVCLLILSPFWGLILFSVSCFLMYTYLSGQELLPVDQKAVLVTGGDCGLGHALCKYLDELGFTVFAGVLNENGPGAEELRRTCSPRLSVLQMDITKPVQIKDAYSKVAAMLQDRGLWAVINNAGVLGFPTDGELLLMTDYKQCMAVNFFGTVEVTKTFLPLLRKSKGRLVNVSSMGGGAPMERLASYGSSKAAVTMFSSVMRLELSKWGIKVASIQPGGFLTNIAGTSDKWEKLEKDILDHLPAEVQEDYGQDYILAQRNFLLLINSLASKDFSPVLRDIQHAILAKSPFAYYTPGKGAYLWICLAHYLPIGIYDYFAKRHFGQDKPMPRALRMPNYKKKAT
Kind of test: Inhibition of the 17β-hydroxysteroid dehydrogenase type 2 enzyme, 3H-testosterone conversion. The following applies: inhibitor at 10 μM. The procedure:
Inhibition of the 17β-Hydroxysteroid Dehydrogenase Type 2 Enzyme
Recombinant human 173-HSD2 protein (GenBank Accession No. NM_002153.3) produced in Sf-9 insect cells with baculovirus was used for screening.
Recombinant protein (105 nM/4.5 μg/ml) was incubated in 20 mM KH2PO4 pH 8.5, 1 mM EDTA, complete protease inhibitor cocktail, 1 mM NAD with 56.25 nM testosterone (including ^3H-labelled testosterone) for 30 min at RT, in the presence of the potential inhibitor at 10 μM concentration. Inhibitor stock solutions were prepared in DMSO. Final concentration of DMSO was adjusted to 1% in all samples. The enzyme reaction was stopped by addition of 10% trichloroacetic acid (final concentration 1%). Samples were filtrated through […] filtration plate. Analyses of samples was done with Waters Acquity UPLC H-class equipped with XBridge C18 column and XBridge VanGuard C18 guard column. Acetonitrile: 0.1% formic acid in water (42/58 v/v) with flow of 1.2 ml/min was used for mobile phase. The eluent was mixed with scintillant and the radioactivity was monitored in the eluate by a Scintillation Analyser. The conversion percentage of tritiated substrate (testosterone) to product tritiated (androstenedione) for each sample was determined by the relative percentages of substrate and product in the chromatogram. The inhibition percentages of samples were calculated using following formula: […]

Take `N#CC(=C1CCN(C(=O)N2CCc3sccc3C2)CC1)c1cc(F)cc(F)c1` [Compound 51, 2-(3,5-difluorophenyl)-2-(1-(4,5,6,7-tetrahydrothieno[3,2-c]pyridine-5-carbonyl)piperidin-4-ylidene)acetonitrile]: the inhibition at 0.5 µM in test [1] was 96%. Besides, the figures for the inhibition at 10 µM in test [2] and in test [3] were 18% and 26%, respectively.
As for `N#CC(=C1CCN(C(=O)N2CCn3nncc3C2)CC1)c1ccc(Cl)cn1` [Compound 163, 2-(5-chloropyridin-2-yl)-2-(1-(4,5,6,7-tetrahydro-[1,2,3]triazolo[1,5-a]pyrazine-5-carbonyl)piperidin-4-ylidene)acetonitrile], the inhibition at 0.5 µM in test [1] was found to be 97%. Moreover, the inhibition at 10 µM in test [2] came to 2%; in test [3], 9%.
On to `N#CC(=C1CCN(C(=O)N2CCn3cncc3C2)CC1)c1ccc(Cl)cc1` [Compound 46, 2-(4-chlorophenyl)-2-(1-(5,6,7,8-tetrahydroimidazo[1,5-a]pyrazine-7-carbonyl)piperidin-4-ylidene)acetonitrile], for which the inhibition at 0.5 µM in test [1] turned out to be 102%. Moreover, the inhibition at 10 µM in test [2] was found to be 8%; in test [3], 11%.
For `N#CC(=C1CCN(C(=O)N2CCC(CO)CC2)CC1)c1ccc(F)cc1F` [Compound 39, 2-(2,4-difluorophenyl)-2-(1-(4-(hydroxymethyl)piperidine-1-carbonyl)piperidin-4-ylidene)acetonitrile], in that order: 96%, 13% and 6%.
`N#CC(=C1CCN(C(=O)N2CCC(O)CC2)CC1)c1ccc(OC(F)(F)F)cc1` [Compound 115, 2-(1-(4-hydroxypiperidine-1-carbonyl)piperidin-4-ylidene)-2-(4-(trifluoromethoxy)phenyl)acetonitrile]: the inhibition at 0.5 µM in test [1] amounted to 96%. The inhibition at 10 µM was 0% in test [2] and -1% in test [3].
For `N#CC(=C1CCN(C(=O)N2CCC(O)CC2)CC1)c1cccc(Cl)c1` [Compound 80, 2-(3-chlorophenyl)-2-(1-(4-hydroxypiperidine-1-carbonyl)piperidin-4-ylidene)acetonitrile], in that order: 99%, 7% and 12%.
For `COC1CCN(C(=O)N2CCC(=C(C#N)c3cccc(Cl)c3)CC2)CC1` [Compound 17, 2-(3-chlorophenyl)-2-(1-(4-methoxypiperidine-1-carbonyl)piperidin-4-ylidene)acetonitrile], in that order: 98%, 8% and 31%.
For `N#CC(=C1CCN(C(=O)N2CCc3[nH]ncc3C2)CC1)c1ccc(Cl)cn1` [Compound 67, 2-(5-chloropyridin-2-yl)-2-(1-(4,5,6,7-tetrahydro-1H-pyrazolo[4,3-c]pyridine-5-carbonyl)piperidin-4-ylidene)acetonitrile], in that order: 98%, 6% and 9%.
Consider `N#CC(=C1CCN(C(=O)N2CCC(CCO)CC2)CC1)c1ccc(C(F)(F)F)cc1` [Compound 149, 2-(1-(4-(2-hydroxyethyl)piperidine-1-carbonyl)piperidin-4-ylidene)-2-(4-(trifluoromethyl)phenyl)acetonitrile], for which the inhibition at 0.5 µM in test [1] came out at 94%. Also, the inhibition at 10 µM was found to be 7% in test [2] and 9% in test [3].
Consider `N#CC(=C1CCN(C(=O)N2CCCCC2)CC1)c1cc(F)cc(F)c1` [Compound 10, 2-(3,5-difluorophenyl)-2-(1-(piperidine-1-carbonyl)piperidin-4-ylidene)acetonitrile], for which the inhibition at 0.5 µM in test [1] worked out at 89%. Further, the inhibition at 10 µM in test [2] worked out at 10%; in test [3], 4%.
With `N#CC(=C1CCN(C(=O)N2CCc3sccc3C2)CC1)c1ccc(Cl)s1` [Compound 64, 2-(5-chlorothiophen-2-yl)-2-(1-(4,5,6,7-tetrahydrothieno[3,2-c]pyridine-5-carbonyl)piperidin-4-ylidene)acetonitrile], the inhibition at 0.5 µM in test [1] came to 99%. Besides, the inhibition at 10 µM is 19% in test [2] and 28% in test [3].
`N#CC(=C1CCN(C(=O)N2C[C@@H]3CC[C@@H]2C3)CC1)c1ccc(F)cc1` [Compound 29, 2-(1-((1R,4R)-2-azabicyclo[2.2.1]heptane-2-carbonyl)piperidin-4-ylidene)-2-(4-fluorophenyl)acetonitrile]: the inhibition at 0.5 µM in test [1] was found to be 96%. The inhibition at 10 µM was found to be 5% in test [2] and 30% in test [3].
For `N#CC(=C1CCN(C(=O)N2CCn3ncnc3C2)CC1)c1ccc(C(F)(F)F)cc1` [Compound 152, 2-(1-(5,6,7,8-tetrahydro-[1,2,4]triazolo[1,5-a]pyrazine-7-carbonyl)piperidin-4-ylidene)-2-(4-(trifluoromethyl)phenyl)acetonitrile], in that order: 99%, 4% and 8%.
For `N#CC(=C1CCN(C(=O)N2CC(C#N)C2)CC1)c1ccc(F)cc1` [Compound 23, 1-(4-(cyano(4-fluorophenyl)methylene)piperidine-1-carbonyl)azetidine-3-carbonitrile], in that order: 96%, 13% and 1%.
